According to patent US20250277784A1, “EXPRESSION SYSTEMS FOR THE ALPHA6BETA4 NICOTINIC ACETYLCHOLINE RECEPTOR AND METHODS OF USE THEREOF” (Janssen Pharmaceutica NV, priority 2021, published 2025):
Where two headings read alike, the source gives them in different places.

What was measured:
Human α6β4 nAChR [1] = target: T1, Human α6β4 nAChR (Homo sapiens, UniProt P30926+Q15825); experiment: FLIPR assay, agonist-evoked calcium flux in recombinant cells co-transfected with BARP, SULT2B1 and CHAT; format: cell-based
T1 construct: expressed in transfected cells
T1 sequence (Q15825 26-494): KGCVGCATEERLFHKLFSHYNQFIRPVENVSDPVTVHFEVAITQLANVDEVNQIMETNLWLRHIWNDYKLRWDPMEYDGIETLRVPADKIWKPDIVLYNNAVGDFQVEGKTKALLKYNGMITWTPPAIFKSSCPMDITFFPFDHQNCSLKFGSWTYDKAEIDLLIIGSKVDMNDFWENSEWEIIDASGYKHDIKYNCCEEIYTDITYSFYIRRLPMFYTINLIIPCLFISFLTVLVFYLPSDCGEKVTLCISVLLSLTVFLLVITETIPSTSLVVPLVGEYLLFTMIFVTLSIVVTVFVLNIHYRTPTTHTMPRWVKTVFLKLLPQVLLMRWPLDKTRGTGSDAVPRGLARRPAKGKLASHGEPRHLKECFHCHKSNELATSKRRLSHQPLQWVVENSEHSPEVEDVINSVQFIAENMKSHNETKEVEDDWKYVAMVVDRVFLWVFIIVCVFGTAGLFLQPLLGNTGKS
T1 sequence (P30926 22-498): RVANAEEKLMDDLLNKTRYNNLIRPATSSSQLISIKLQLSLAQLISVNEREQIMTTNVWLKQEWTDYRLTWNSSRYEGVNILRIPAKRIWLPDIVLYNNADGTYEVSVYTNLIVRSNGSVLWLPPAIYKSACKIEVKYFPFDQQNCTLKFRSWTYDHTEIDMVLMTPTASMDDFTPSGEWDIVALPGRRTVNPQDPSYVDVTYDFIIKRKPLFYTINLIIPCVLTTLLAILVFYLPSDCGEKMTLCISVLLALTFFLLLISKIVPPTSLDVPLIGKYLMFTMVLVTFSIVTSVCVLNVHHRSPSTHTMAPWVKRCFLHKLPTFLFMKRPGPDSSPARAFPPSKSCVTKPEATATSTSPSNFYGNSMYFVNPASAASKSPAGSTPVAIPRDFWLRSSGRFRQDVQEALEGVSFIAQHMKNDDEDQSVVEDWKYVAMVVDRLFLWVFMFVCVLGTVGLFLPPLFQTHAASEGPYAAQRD
Method: In one embodiment, FLIPR assay is used to identify agonists of α6β4 nAChR mediated calcium flux. In this assay, the recombinant cells are incubated with a calcium sensitive dye (such as Ca5), exposed to a test compound, and calcium flux is imaged by FLIPR^TETRA.
• Prepare a cell suspension of 1×10^6 cells per mL by centrifuging cells and resuspending in fresh, prewarmed media; • With 1900 mL of cells shaking, prepare the following transfection mix in 50 ml of OptiPro SFM Medium; • Add 2.5 mL FreeStyle MAX reagent to 47.5 mL of OptiPro SFM to an empty 50 ml tube; • In a second 50 ml tube, add 2.5 mg total DNA (α6, β4, BARP, CHAT, and SULT2B1 at a ratio of 1:1:2:1:1) in OptiPro SFM to a final volume of 50 ml and vortex gently; • Transfer the diluted DNA to the FreeStyle MAX reagent and gently mix the solution immediately and incubate for 10 minutes at room temperature; • Transfer the 100 ml FreeStyle MAX/DNA transfection mix to the cells and homogenize the culture; • Incubate 1 hour at 37° C. with 8% CO2; • Pour cells into sterile 500 mL tubes; • Spin at 1000 rpm for 7 minutes; • Remove supernatant; and • Resuspend Cells in Plating Media.
• Ethanol vials to decontaminate; • Pour cells into 50 ml conical tube; • Slowly add 10 ml warmed plating media drop wise; • Pipet up and down gently a few times to dislodge pellet if it exists; • Spin at 1000 RPM for 7 min, aspirate supernatant, and resuspend in 25 ml plating; • Seed 35,000 cells/well in 35 μL (1.0×10^6 cells/mL); and • Incubate plates for 24 hours at 37° C. Then transfer the plate to 30° C. with 5% CO2 in a humidified atmosphere for 24-48 hours.
• Wash plate with plate washer (4 washes×100 μL/wash) using compound dilution buffer, leaving 25 µL in each well; • Add 25 μL of 2× Ca6 dye to each well; • Incubate at room temperature for 1 hour; • Wash plate with plate washer (4 washes×100 μL/wash) using compound dilution buffer, leaving 50 µL in each well; • Transfer plates to FLIPR for compound addition. Concentration Response Curves for Agonist-Evoked Activity of α6β4 nAChR
Human α6 and β4 subunits of α6β4 nAChR were co-transfected with BARP, SULT2B1, and CHAT in HEK293T cells and incubated at 30° C. for 24-48 hours. The transfected cells were incubated for one hour at room temperature with Ca5 dye followed by stimulating with agonists for 3.5 minutes. Agonist-evoked calcium flux was measured using a FLIPR^TETRA imager and final FLIPR signals were averaged and plotted (FIG. 1).

[2] = system: patients with diabetic peripheral neuropathic pain; settings: phase 2 clinical trial; cited from earlier work
Human α6β4 nAChR [3] = target: T1, Human α6β4 nAChR; experiment: FLIPR assay, antagonist on nicotine-evoked calcium flux (two-addition protocol); format: cell-based; settings: HEK293T cells, 1st addition test compound 3 min, 2nd addition nicotine (EC80, 15 μM) 3.5 min, FIG. 2
Method: In one embodiment, FLIPR assay is used to identify antagonists of nicotine-evoked α6β4 nAChR mediated calcium flux. In this assay, the recombinant cells are incubated with a calcium sensitive dye (such as Ca5). Using a double addition protocol, the recombinant cells are exposed to test compounds during the first duration, and to nicotine (e.g., at EC80 (15 μm)) during the second duration. Thereafter, the calcium flux is imaged by FLIPR^TETRA. […]
Human α6 and β4 subunits of α6β4 nAChR were co-transfected with BARP, SULT2B1, and CHAT in HEK293T cells and incubated at 30° C. for 24-48 hour. […] Nicotine-evoked calcium flux was then measured using a FLIPR^TETRA imager and the final FLIPR signals were averaged and plotted (FIG. 2).

α6 knockout mice = settings: following both inflammatory and neuropathic injuries; cited from earlier work
[4] = HEK293T cells, incubated at 30° C. for 24-48 hours, Ca5 dye, agonist stimulation 3.5 minutes, FIG. 1

For `c1cncc(OC[C@@H]2CCN2)c1` [A-85380], which “Agonist-evoked calcium flux (FLIPR signal)” value (“Agonist-evoked calcium flux” for short) (Human α6β4 nAChR [1]; [4]) is on record?
The value was “enhances calcium flux in a dose-dependent manner”.

Which “Agonist-evoked calcium flux” value (Human α6β4 nAChR [1]; [4]) does the source give for `Clc1ccc(OC[C@H]2CCN2)cn1` [ABT-594] here?
Its value is “enhances calcium flux in a dose-dependent manner”.

What about the “Efficacy for diabetic neuropathy” value [2] of the same molecule?
The value was “robust efficacy”.

And the Side effects [2]?
The Side effects was “unacceptable side effects”.

For `Clc1cc(N2C[C@@H]3CN[C@@H]3C2)cnc1Cl` [ABT-894], which “Agonist-evoked calcium flux” value (Human α6β4 nAChR [1]; [4]) is on record?
The value was “enhances calcium flux in a dose-dependent manner”.

With `CCN1C[C@]2(COC(=O)c3ccccc3N3C(=O)C[C@H](C)C3=O)CC[C@H](OC)[C@@]34[C@@H]5C[C@H]6[C@H](OC)[C@@H]5[C@](O)(C[C@@H]6OC)[C@@](O)([C@@H](OC)[C@H]23)[C@@H]14` [MLA, methyllycaconitine] as the molecule, how does the “Nicotine-evoked calcium flux (FLIPR signal)” value (Human α6β4 nAChR [3]) read?
The value was “decreases the nicotine-evoked calcium flux in a dose-dependent manner”.

Which “Agonist-evoked calcium flux” value (Human α6β4 nAChR [1]) does the source give for `O=c1cccc2n1C[C@@H]1CNC[C@H]2C1` [cytisine] here?
The value was “enhances calcium flux in a dose-dependent manner”.

Which “Agonist-evoked calcium flux” value (Human α6β4 nAChR [1]; [4]) does the source give for `Clc1ccc(C2CC3CCC2N3)cn1` (stereo not drawn) [epibatidine] here?
Its value is “enhances calcium flux in a dose-dependent manner”.

Which results are given for `CN1CCCC1c1cccnc1` (stereo not drawn) [nicotine]?
Agonist-evoked calcium flux (FLIPR signal) (Human α6β4 nAChR [1]): enhances calcium flux in a dose-dependent manner; Nicotine EC80 (Human α6β4 nAChR [1]): 15 µM; Analgesic effects (α6 knockout mice): absent

With `c1cnc2cc3c(cc2n1)[C@@H]1CNC[C@H]3C1` [varenicline] as the molecule, how does the “Agonist-evoked calcium flux” value (Human α6β4 nAChR [1]; [4]) read?
Its value is “enhances calcium flux in a dose-dependent manner”.
